According to paper PMC2360547 (British Journal of Cancer, 2006):
Values joined by “and” are separate entries in the source; they are usually repeats but may differ in a detail not shown here. Equal values may be shown once. Read-outs that look alike come from different tables or passages of the source.

Assays:
[1] = tested on: multidrug resistant cells (R100; CCRF CEM cells resistant to 100 ng ml−1 vinblastine); conditions: for Percent of potential maximum reversal of multidrug resistance: plasma from patients receiving midostaurin 75 mg t.i.d.
Method: This was determined using a previously reported method that assessed the capacity of cremophor EL to inhibit MDR^10. Briefly, the ability of the patient's plasma to modulate ex vivo intracellular daunorubicin accumulation in multidrug resistant cells (R100; CCRF CEM cells resistant to 100 ng ml^−1 vinblastine) was measured using fluorescence detection. The activity of 20 μg ml^−1 Valspodar (PSC833, an inhibitor of P-glycoprotein) added to the patient's prestudy plasma sample defined 100% reversal ([…] of daunorubicin). […] The modulating ability of day 29 plasma samples was determined relative to this. All assays were performed in triplicate. Blank plasma was spiked with 1.0 μl ml^−1 cremophor EL and run as an inter-assay control.

[2] = Tumour tissue concentrations by HPLC with fluorescence detection; type: in vivo, human; conditions: for Kp at 28 day / concentration at 28 day: human, oral, 10 subjects; for Kp at 28 day: tumour tissue / plasma, 75 mg three times a day, tumour tissue to plasma; for concentration at 28 day: 75 mg tid
Method: Therefore, the tumour tissue was frozen and cut into as small as possible pieces with a scalpel. The pieces were weighed, added to 1 ml of water, vortexed and thereafter treated like plasma. The assay for plasma samples was validated with acceptable calibration curves, within-study variability and total recovery. […] Due to limited availability of tumour tissue, the within-study validation for tumour assay was not performed.

[3] = tested on: acute myeloid leukaemia (AML); design: method as in Stone et al, 2005; conditions: ref Stone et al, 2005, cited from earlier work
[4] = 20 μg ml−1 added to pretreatment plasma, 100% = 20 μg ml−1 Valspodar

Structure (SMILES): CO[C@@H]1[C@H](N(C)C(=O)c2ccccc2)C[C@H]2O[C@]1(C)n1c3ccccc3c3c4c(c5c6ccccc6n2c5c31)C(=O)NC4 [Midostaurin, N-benzoyl-staurosporine]
- Percent of potential maximal reversal of multidrug resistance, mean [1, 4]: 40%
- Percent of potential maximal reversal of multidrug resistance, range [1, 4]: 14–64%
- Percent of potential maximum reversal of multidrug resistance ([1]; 10 out of 12 patients): < 10%
- Percent of potential maximum reversal of multidrug resistance ([1]; all 12 patients): < 20%
- Kp at 28 day ([2]; read-out: Tissue/plasma ratios, maximum): 1.86
- Kp at 28 day ([2]; read-out: Tissue/plasma ratios, mean): 0.56
- Kp at 28 day ([2]; read-out: Tissue/plasma ratios, median): 0.29
- Kp at 28 day ([2]; read-out: Tissue/plasma ratios, minimum): 0.02
- concentration at 28 day ([2]; tumour tissue, tumour tissue, about 1 month of 75 mg tid, read-out: Tissue concentrations, maximum): 4250 nM
- concentration at 28 day ([2]; tumour tissue, tumour tissue, about 1 month of 75 mg tid, read-out: Tissue concentrations, mean): 1300 nM
- concentration at 28 day ([2]; tumour tissue, tumour tissue, about 1 month of 75 mg tid, read-out: Tissue concentrations, median): 593 nM
- concentration at 28 day ([2]; tumour tissue, tumour tissue, about 1 month of 75 mg tid, read-out: Tissue concentrations, minimum): 58 nM
- Tissue concentrations ([2]; tumour tissue, individual subjects, about 1 month of 75 mg tid): 58 nM and 607 nM and 266 nM and 579 nM and 4142 nM and 550 nM and 1528 nM and 358 nM and 698 nM and 4246 nM
- Tolerability ([3]; 225 mg day−1 in AML): well-tolerated
- AML patients with a 50% reduction in bone marrow blast cells [3]: 25%
- AML patients with a 50% reduction of peripheral blood blast cells [3]: 70%
